In PubChem BioAssay AID743029 (The Scripps Research Institute Molecular Screening Center, 2013):

How the values were obtained:
Assay in all cases: CYP1A2, 2C9, 2D6, 3A4 inhibition – biochemical, LC-MS, ADME assay for V1a-R antagonist project, late-stage follow-up (AID 743029)
[1] = target: Cytochrome P450 1A2 (Homo sapiens) (UniProt P05177); conditions: human CYP isoforms, marker substrate metabolism, CYP1A2, at 10 µM, stronger effect = higher value
[2] = target: Cytochrome P450 2D6 (Homo sapiens) (UniProt P10635); conditions: human CYP isoforms, marker substrate metabolism, CYP2D6, at 10 µM, stronger effect = higher value
[3] = target: Cytochrome P450 3A4 (Homo sapiens) (UniProt P08684); conditions: human CYP isoforms, marker substrate metabolism, CYP3A4, at 10 µM, stronger effect = higher value
[4] = target: Cytochrome P450 2C9 (Homo sapiens) (UniProt P11712); conditions: human CYP isoforms, marker substrate metabolism, CYP2C9, at 10 µM, stronger effect = higher value
Sequence of Cytochrome P450 2C9 (Homo sapiens) (P11712 whole entry, looked up, canonical isoform): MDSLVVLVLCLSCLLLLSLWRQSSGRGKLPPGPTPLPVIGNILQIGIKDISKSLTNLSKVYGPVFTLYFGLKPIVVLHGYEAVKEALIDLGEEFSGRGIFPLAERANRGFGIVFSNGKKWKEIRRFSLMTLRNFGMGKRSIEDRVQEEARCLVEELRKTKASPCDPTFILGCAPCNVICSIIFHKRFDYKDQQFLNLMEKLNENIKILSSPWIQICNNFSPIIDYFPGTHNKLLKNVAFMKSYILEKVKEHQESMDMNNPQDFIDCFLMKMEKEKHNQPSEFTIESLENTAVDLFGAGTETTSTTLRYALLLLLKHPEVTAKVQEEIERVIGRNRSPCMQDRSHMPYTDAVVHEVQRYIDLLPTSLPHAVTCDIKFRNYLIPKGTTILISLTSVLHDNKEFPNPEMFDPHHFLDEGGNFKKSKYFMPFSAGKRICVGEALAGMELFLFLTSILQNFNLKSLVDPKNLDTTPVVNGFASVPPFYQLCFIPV

Sequence of Cytochrome P450 1A2 (Homo sapiens) (P05177 whole entry, looked up, canonical isoform): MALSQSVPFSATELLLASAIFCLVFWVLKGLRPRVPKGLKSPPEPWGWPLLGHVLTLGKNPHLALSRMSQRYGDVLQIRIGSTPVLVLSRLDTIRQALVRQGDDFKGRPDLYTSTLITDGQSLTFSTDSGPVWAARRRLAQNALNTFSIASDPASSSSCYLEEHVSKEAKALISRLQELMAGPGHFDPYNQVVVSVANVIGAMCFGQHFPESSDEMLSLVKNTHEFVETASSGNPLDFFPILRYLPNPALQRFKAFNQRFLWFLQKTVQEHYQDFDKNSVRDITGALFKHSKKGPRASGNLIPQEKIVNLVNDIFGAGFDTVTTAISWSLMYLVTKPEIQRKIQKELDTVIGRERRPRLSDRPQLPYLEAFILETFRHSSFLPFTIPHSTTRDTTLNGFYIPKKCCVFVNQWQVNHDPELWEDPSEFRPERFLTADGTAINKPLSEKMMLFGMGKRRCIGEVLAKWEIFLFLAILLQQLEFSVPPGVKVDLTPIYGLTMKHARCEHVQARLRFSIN
Sequence of Cytochrome P450 3A4 (Homo sapiens) (P08684 whole entry, looked up, canonical isoform): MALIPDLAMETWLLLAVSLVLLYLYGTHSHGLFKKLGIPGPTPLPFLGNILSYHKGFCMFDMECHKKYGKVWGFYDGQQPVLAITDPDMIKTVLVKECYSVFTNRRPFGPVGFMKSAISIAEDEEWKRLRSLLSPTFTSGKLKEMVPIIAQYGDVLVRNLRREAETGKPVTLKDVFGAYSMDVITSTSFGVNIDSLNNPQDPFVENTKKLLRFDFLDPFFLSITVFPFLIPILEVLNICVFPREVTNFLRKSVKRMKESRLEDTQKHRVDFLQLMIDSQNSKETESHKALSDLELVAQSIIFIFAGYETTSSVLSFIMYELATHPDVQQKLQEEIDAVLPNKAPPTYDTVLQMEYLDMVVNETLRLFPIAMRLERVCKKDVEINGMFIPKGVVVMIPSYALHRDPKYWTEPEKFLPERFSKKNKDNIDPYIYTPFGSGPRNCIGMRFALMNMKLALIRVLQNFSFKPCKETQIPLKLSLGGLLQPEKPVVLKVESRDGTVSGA
Sequence of Cytochrome P450 2D6 (Homo sapiens) (P10635 whole entry, looked up, canonical isoform): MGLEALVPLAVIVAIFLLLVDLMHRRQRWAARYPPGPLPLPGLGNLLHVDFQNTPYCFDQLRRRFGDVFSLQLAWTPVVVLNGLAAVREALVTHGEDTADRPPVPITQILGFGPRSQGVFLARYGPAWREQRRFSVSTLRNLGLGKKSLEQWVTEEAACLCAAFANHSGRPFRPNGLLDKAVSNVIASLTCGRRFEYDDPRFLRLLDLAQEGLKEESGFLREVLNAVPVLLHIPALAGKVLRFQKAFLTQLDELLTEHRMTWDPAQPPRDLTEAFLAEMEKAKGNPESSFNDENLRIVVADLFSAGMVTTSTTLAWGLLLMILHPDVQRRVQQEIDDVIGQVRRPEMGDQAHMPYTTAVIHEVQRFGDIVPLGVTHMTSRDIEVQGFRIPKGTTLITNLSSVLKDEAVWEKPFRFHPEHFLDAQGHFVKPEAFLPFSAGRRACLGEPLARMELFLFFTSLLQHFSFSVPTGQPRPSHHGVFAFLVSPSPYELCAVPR

- inhibition [1]: -19%
- inhibition [2]: 2%
- inhibition [3]: -5%
- inhibition [4]: -6%
SMILES: O=C(C1CCN(c2ccc(Cl)cn2)CC1)N(CC1CC1)c1ccc(Cl)cc1
